Laboratory results: patent publication US6881752B2 (University of Alabama, priority 1998, dated 2005)

Key:
[1] = target: T1, insulin-dependent membrane tyrosine protein kinase activity (rat adipocytic membranes) (Rattus norvegicus, UniProt P15127); experiment: Rat adipocytic membrane protein tyrosine kinase activity in the presence of 100 nM insulin; assay type: biochemical
T1 construct: from tissue; host or cells: epididymal fat pad adipocyte membranes, male Sprague Dawley rats
Protocol: (§1) 100% activity represents the activity in the absence of added chromium complexes or their components. 25 μL of a rat membrane suspension corresponding to 0.0895 mg protein/mL was utilized.
(§2) Fat cells from male Sprague Dawley rats were isolated using the procedures of Rodbell^19 and Anderson et al.^20 with modifications.^2 Three rats (not kept on a Cr-deficient diet) were sacrificed by decapitation, and their epididymal fat pads removed. Rat adipocytes were washed with 1% bovine serum albumin (BSA). 50 mM Hepes, pH 7.4 buffer containing 10 μg/mL leupeptin and 5 μg/mL aprotinin. Cells were homogenized with a manual teflon homogenizer and frozen and thawed five times. The lipid layer was removed, and the cell homogenate was centrifuged for one hour at 40,000 g. The supernatant was removed, and the pellet was suspended in Hepes buffer and used as the source of membrane phosphatase and kinase activity. Protein concentrations were analyzed using the BCA method (Pierce Chemical Co.) with BSA as standard.

[2] = tested on: membrane phosphotyrosine protein phosphatase (rat adipocytic membranes); experiment: Rat adipocytic membrane phosphotyrosine phosphatase activity, p-NPP substrate; assay type: biochemical; details: 5 mM p-NPP
Protocol: 125 μL of a rat membrane suspension corresponding to 0.0856 mg of protein/mL was utilized.
as §1, §2
p-nitrophenyl phosphate (p-NPP) was used to determine the amount of PTP activity using the method of Li et al.^21 The assay used 5 mM substrate in 0.05 M Tris, pH 7.5, unless noted. Activation of PTP activity by LMWCr and other Cr-containing species was examined as described by Davis et al.^2 Solutions of LMWCr, 1,2, and the Cr-amino acid mixture were incubated with the enzyme for fifteen minutes at 37° C. before initiation of the reaction. Hydrolyses proceeded for one hour at 37° C. The extent of hydrolysis was determined at 404 nm (ε=1.78×10^4M^−1cm^−1).

[3] = tested on: adult-onset diabetic patients; details: cited from earlier work

T1 sequence (P15127 764-1383 limits assumed): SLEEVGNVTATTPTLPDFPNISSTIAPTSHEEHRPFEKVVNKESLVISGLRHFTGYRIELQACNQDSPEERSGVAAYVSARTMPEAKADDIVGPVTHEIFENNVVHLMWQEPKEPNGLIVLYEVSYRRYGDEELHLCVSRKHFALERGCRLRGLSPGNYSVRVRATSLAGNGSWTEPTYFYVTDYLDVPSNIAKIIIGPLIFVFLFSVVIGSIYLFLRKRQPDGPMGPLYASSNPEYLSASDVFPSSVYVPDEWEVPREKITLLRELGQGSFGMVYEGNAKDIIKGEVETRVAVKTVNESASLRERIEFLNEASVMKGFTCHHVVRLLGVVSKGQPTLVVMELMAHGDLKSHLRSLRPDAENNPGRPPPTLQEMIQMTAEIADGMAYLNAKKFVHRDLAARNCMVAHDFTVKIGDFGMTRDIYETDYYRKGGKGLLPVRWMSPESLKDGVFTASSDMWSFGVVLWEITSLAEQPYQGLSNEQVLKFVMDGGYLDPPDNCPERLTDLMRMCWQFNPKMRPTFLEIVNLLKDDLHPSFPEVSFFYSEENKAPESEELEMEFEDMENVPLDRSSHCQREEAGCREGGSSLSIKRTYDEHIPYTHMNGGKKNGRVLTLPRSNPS
T1 sequence (P15127 27-759 partner limits assumed): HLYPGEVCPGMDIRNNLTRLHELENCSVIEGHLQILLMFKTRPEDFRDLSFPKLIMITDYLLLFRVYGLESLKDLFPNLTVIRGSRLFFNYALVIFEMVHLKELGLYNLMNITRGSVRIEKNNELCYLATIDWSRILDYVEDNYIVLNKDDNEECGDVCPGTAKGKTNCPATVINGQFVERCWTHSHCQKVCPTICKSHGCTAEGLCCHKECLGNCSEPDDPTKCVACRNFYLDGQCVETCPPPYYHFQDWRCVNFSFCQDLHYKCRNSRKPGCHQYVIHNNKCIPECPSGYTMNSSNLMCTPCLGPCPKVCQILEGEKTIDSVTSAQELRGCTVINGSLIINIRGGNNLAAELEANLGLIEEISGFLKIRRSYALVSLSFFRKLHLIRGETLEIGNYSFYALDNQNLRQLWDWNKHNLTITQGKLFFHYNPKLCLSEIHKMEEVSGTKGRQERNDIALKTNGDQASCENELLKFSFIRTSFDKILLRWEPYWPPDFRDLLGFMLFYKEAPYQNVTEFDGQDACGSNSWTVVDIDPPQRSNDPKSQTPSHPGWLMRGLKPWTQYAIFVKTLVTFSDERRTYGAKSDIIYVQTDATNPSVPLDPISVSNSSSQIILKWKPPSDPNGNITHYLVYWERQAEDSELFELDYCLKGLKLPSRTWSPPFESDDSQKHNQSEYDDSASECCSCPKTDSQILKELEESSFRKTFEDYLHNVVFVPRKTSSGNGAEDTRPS
T1 sequence (P01317 25-54 partner limits assumed): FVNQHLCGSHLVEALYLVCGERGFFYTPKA
T1 sequence (P01317 85-105 partner limits assumed): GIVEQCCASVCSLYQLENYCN

Molecule	effect on insulin-dependent membrane kinase activity [1]	effect on membrane phosphatase activity [2]	insulin requirements ([3]; 138 adult-onset diabetic patients)	glycemic control ([3]; 180 adult-onset diabetic patients)
[Cr3O(O2CCH3)6 (H2O)3]Cl [compound 2]	inhibits	inhibits		
chromium(III) picolinate			reduced insulin requirements	improved glycemic control
CCC(=O)O [Propionic acid]	do not potentiate	do not potentiate		
O=[N+]([O-])O [nitrate]	do not potentiate	do not potentiate		
